What is called EC50 is the concentration that produces a half-maximal response. A low value points to a more potent agent. A word on the CC50: it is the concentration that lowers cell viability or growth by half. Low values mean greater toxicity to the cells, high ones lower toxicity to the cells.

A value given as a limit tells only on which side of the number the result lay.

8 molecules from US20250084088A1, “ANTIVIRAL COMPOUNDS AND METHODS OF MAKING AND USING THE SAME” (Gilead Sciences, Inc., priority 2023, published 2025) can be followed below.

Data set [1] relates to RSV strain A2. The data set can be described thus: RSV Cellomics assay for RSV A2 antiviral activity (EC50-RSV-Hep2-96-Cellomics), Example Z. It is filed as cell-based. Conditions: human respiratory syncytial virus, HEp-2, 72 h; Hep2 cells infected with RSV strain A2, MOI=0.05, 3 days, RSV F protein immunofluorescence. As for the experimental part:
Example Z: RSV Cellomics Assay for RSV A2 Antiviral Activity (EC50-RSV-Hep2-96-Cellomics) 8×10^3 Hep2 cells are seeded into 96 well plates in 100 μL of media (DMEM supplemented with GlutaMAX, 10% FBS and Pen/Strep) and briefly spun at 50×g for 1 minute to attach cells. Cells were further allowed to attach with overnight incubation at 37° C.+5% CO2. The following day, the media was aspirated and 100 μL of fresh DMEM media containing 2% FBS was added. A three-fold dilution series of compounds of interest are then added to the plate using the Tecan D300e dispenser and the plate is normalized to the well with the highest volume of DMSO. The cells are next infected by adding 100 μL of media containing RSV strain A2 at an MOI=0.05 and the plates incubated for 3 days at 37° C.+5% CO2. Following the incubation, the media is removed, and the cells are washed once with 250 μL PBS and fixed with 250 μL ice-cold 100% methanol for 10 minutes at 4 C. The methanol is then removed and the plates air dried for 5 minutes and then washed once with 250 μL PBS to remove any residual methanol. The wells are then blocked 60 μL/well of BlockAid (B10710, Thermo-Fisher) for 1 hour at RT on rocker at which point the blocking buffer is carefully aspirated. Primary antibody against the RSV F protein (MAB 858-1) is then diluted 1:2000 in SuperBlock (37515, Thermo Fisher) and 50 μL of the primary antibody solution is added to each well. The plates are incubated at room temperature for 1 hour with gentle agitation and then washed with 250 μL of PBS-Tween 3 times. A goat anti-mouse AlexaFluor 647 conjugated secondary antibody (Sigma, A21235) is then diluted 1:2000 and Hoescht 33342 (H3570) at 1:1000 in SuperBlock and 50 μL added to the wells for 1 hour at 37° C. After incubation the antibody solution is aspirated, and the wells are then washed with 250 μL of PBS-Tween 3 times. To keep cells from drying out, 100 μL of PBS is added to each well and the plates are sealed with black plate seal. Fluorescence at the 647 nm wavelength is measured using a Cellomics CellInsight CX7 machine. Compound activity is determined as a percentage of the % positive cells (or average intensity) compared to DMSO treated RSV infected well controls following subtraction of uninfected controls. The EC50 values are then calculated using nonlinear regression analysis in GraphPad Prism.

The nature of data set [2]: MT4 CC50 cytotoxicity in uninfected cells (CC50-MT4-384), Example G. It is filed as cell-based. The settings on record: human; uninfected MT-4 cells, 4-5 days, Cell-Titer Glo. As for the experimental part:
Example G. HEp-2 and MT4 CC50 Cytotoxicity of the compounds was determined in uninfected cells using the cell viability reagent in a similar fashion as described before for other cell types ([…] et al., ANTIMICROB AGENTS CHEMOTHER. 2008, 52(2):655-65). HEp-2 (1.5×10^3 cells/well) and MT-4 (2×10^3 cells/well) cells were plated in 384-well plates and incubated with the appropriate medium containing 3-fold serially diluted compound ranging from 15 nM to 100,000 nM. Cells were cultured for 4-5 days at 37° C. Following the incubation, the cells were allowed to equilibrate to 25° C., and cell viability was determined by adding Cell-Titer Glo viability reagent. The mixture was incubated for 10 min, and the luminescence signal was quantified using an Envision plate reader. Untreated cell and cells treated at 2 μM puromycin (Sigma, St. Louis, MO) serve as 100% and 0% cell viability control, respectively. The percent of cell viability was calculated for each tested compound concentration relative to the 0% and 100% controls and the CC50 value was determined by non-linear regression as a compound concentration reducing the cell viability by 50%.

In the case of `CC(=O)O[C@H]1[C@H](c2ccc3c(N)ncnn23)O[C@](C#N)(COC(=O)OCC(C)C)[C@H]1OC(C)=O` [Compound 1, (2R,3S,4S,5S)-5-(4-aminopyrrolo[2,1-f][1,2,4]triazin-7-yl)-2-cyano-2-(((isobutoxycarbonyl)oxy)methyl)tetrahydrofuran-3,4-diyl diacetate], the EC50 in data set [1] came to 45900 nM. In addition, in data set [2], the CC50 is > 50000 nM.

With `N#C[C@]1(CO)O[C@@H](c2ccc3c(N)ncnn23)[C@H](O)[C@@H]1O` [Compound 0, (2R,3S,4R,5S)-5-(4-aminopyrrolo[1,2-f][1,2,4]triazin-7-yl)-3,4-dihydroxy-2-(hydroxymethyl)tetrahydrofuran-2-carbonitrile, reference compound], the EC50 in data set [1] worked out at 9740 nM. In addition, the cytotoxic concentration (CC50) in data set [2] is > 50000 nM.

In data set [1], `CCOC(=O)OC[C@@]1(C#N)O[C@@H](c2ccc3c(N)ncnn23)[C@H](OC(C)=O)[C@@H]1OC(C)=O` [Compound 5, (2R,3S,4S,5S)-5-(4-aminopyrrolo[2,1-f][1,2,4]triazin-7-yl)-2-cyano-2-(((ethoxycarbonyl)oxy)methyl)tetrahydrofuran-3,4-diyl diacetate] showed a half-maximal effective concentration (EC50) of 61500 nM. The CC50 in data set [2] was > 50000 nM.

In turn, `CC(=O)O[C@H]1[C@H](c2ccc3c(N)ncnn23)O[C@](C#N)(COC(=O)OC(C)C)[C@H]1OC(C)=O` [Compound 3, (2R,3S,4S,5S)-5-(4-aminopyrrolo[2,1-f][1,2,4]triazin-7-yl)-2-cyano-2-(((isopropoxycarbonyl)oxy)methyl)tetrahydrofuran-3,4-diyl diacetate] showed a half-maximal effective concentration (EC50) in data set [1] of 100000 nM. In addition, the 50% cytotoxic concentration (CC50) in data set [2] is > 50000 nM.

Take `CCOC(=O)OC[C@@]1(C#N)O[C@@H](c2ccc3c(N)ncnn23)[C@H](OC(=O)OCC)[C@@H]1OC(=O)OCC` [Compound 6, (2R,3S,4S,5S)-5-(4-aminopyrrolo[2,1-f][1,2,4]triazin-7-yl)-2-cyano-2-(((ethoxycarbonyl)oxy)methyl)tetrahydrofuran-3,4-diyl diethyl bis(carbonate)]: in data set [1], the midpoint of the response, the EC50, lay at 68600 nM. Also, the CC50 in data set [2] was > 50000 nM.

Turning to `CCC(=O)O[C@H]1[C@H](c2ccc3c(N)ncnn23)O[C@](C#N)(COC(=O)OCC(C)C)[C@H]1OC(=O)CC` [Compound 2, (2R,3S,4S,5S)-5-(4-aminopyrrolo[2,1-f][1,2,4]triazin-7-yl)-2-cyano-2-(((isobutoxycarbonyl)oxy)methyl)tetrahydrofuran-3,4-diyl dipropionate], the EC50 in data set [1] is 49200 nM. Further, in data set [2], the cytotoxic concentration (CC50) was > 50000 nM.

As to `CC(=O)O[C@H]1[C@H](c2ccc3c(N)ncnn23)O[C@](C#N)(COC(=O)OC(C)OC(=O)[C@H](C(C)C)N(C)C)[C@H]1OC(C)=O` (stereo partly drawn) [Compound 7, (2R,3S,4S,5S)-5-(4-aminopyrrolo[2,1-f][1,2,4]triazin-7-yl)-2-cyano-2-((8S)-8-isopropyl-5,9-dimethyl-3,7-dioxo-2,4,6-trioxa-9-azadecyl)tetrahydrofuran-3,4-diyl diacetate], the cytotoxic concentration (CC50) in data set [2] is > 50000 nM.

`COC(=O)OC[C@@]1(C#N)O[C@@H](c2ccc3c(N)ncnn23)[C@H](OC(C)=O)[C@@H]1OC(C)=O` [Compound 4, (2R,3S,4S,5S)-5-(4-aminopyrrolo[2,1-f][1,2,4]triazin-7-yl)-2-cyano-2-(((methoxycarbonyl)oxy)methyl)tetrahydrofuran-3,4-diyl diacetate] yielded a half-maximal effective concentration (EC50) in data set [1] of 54000 nM. Besides, the CC50 in data set [2] was > 50000 nM.
